These results are taken from patent US6635786B2, “Symmetrically disubstituted aromatic compounds and pharmaceutical compositions for inhibiting poly (ADP-ribose) glycohydrolase, and methods for their use” (Guilford Pharmaceuticals, Inc., priority 2001, dated 2003).

One data set concerns the target T1, human PARG (Homo sapiens, UniProt Q86W56).
T1 construct: human PARG from amino acid 378 to 976; GST (glutathione-S-transferase, pGEX-4T1) (N); made in house; host or cells: E. coli BL21
Kind of data set: PARG enzymatic assay. In kind it is biochemical. The conditions noted are these: recombinant GST-fused human PARG (aa 378-976); 3H-labeled poly-(ADP-ribose) substrate; 23° C., 10 min. The protocol: The potency of PARG inhibition was determined in a PARG enzymatic assay. For each compound, various doses were used to inhibit the PARG reaction. A dose responsible curve was generated to determine the IC50 value and the concentration (in μM) required to achieve 50% inhibition of the reaction.
The PARG assay consisted of (a) preparation of 3H-labeled radioactive PARG as substrate, (b) purification of recombinant PARG, (c) incubation of the compound with the PARG reaction, (d) separation of the product by absorption to glass fiber filter and quantifying the radioactivity of ADP-ribose by scintillation counting.
3H-labeled poly-(ADP-ribose) was made by mixing labeled and unlabeled PAR. Labeled PAR was synthesized in a reaction of 50 mM Tris-HCl (pH 8.0), 4 mM MgCl2, 0.8 μg/mL activated DNA, 3 μM NAD, NEN 3H-NAD (0.1 mCi/mL), 0.8 μl/mL and 1.4 μl/mL Trevigen PARP. The reaction was incubated at room temperature for 60 min, then dialyzed to remove unincorporated 3H NAD using a MWCO 7000 dialysis cassette in 50 mM Phosphate buffer (pH 7.1) at 5° C. over night. Buffer was changed and dialysis continued for 2 h in the morning. The resulting 3H PAR gave 80,000 DPM/10 μL by scintillation counting.
Unlabeled PAR was synthesized in a reaction that consisted of 50 mM Tris-HCl (pH 8.0), 4 mM MgCl2, 0.8 μg/mL activated DNA, 150 μM NAD, and 1.9 μl/mL Trevigen PARP. The reaction was incubated at room temperature for 60 min, and dialyzed to remove unincorporated NAD in a MWCO 7000 cassette using 50 mM Phosphate buffer (pH 7.1) over night at […]. Buffer was changed and dialysis continued for 2 h in the morning. The OD260 of synthesized PAR is […].
The final PAR mix is made by combining 3H-PAR and PAR synthesized @ 150 μM NAD so that the OD260=0.2-0.3 and the DPM/10 μL=10,000 DPM (SA=0.45 Ci/mmole). EDTA was added to 1 mM.
A cDNA fragment encoding the carboxy terminal part of human PARG from amino acid 378 to 976 was amplified by polymerase chain reaction with human thymus cDNA (Clontech, Palo Alto, Calif.) as a template and a pair of primers with the sequences of 5′-[…]-3′ and 5′-[…]-3′. The primers contained the restriction enzyme sites EcoRI and XhoI. The PCR amplified PARG DNA fragment was digested with EcoRI and XhoI, and then ligated to the same sites in pGEX-4T1 plasmid (acquired from Pharmacia/Upjohn Co., Kalamazoo, Mich.) to create pGEX-PARG by using standard molecular biology procedure. The pGEX-PARG was transformed into E. coli strain BL21 for expressing the recombinant protein that has a glutathione-S-transferase at the amino terminus and fused in frame with PARG at the carboxy terminus. The recombinant protein was expressed and purified using glutathione-sephadex 4B beads according to the standard methodology.
A range of potential PARG inhibitors at final concentrations of 200.0 to 0.1 μM were tested, each point done in triplicate. The compounds were dissolved in DMSO resulting in a final DMSO concentration of 5.0%. The reaction was carried out in a volume of 0.1 mL. PARG enzyme was added to a concentration of 0.05 μL/mL to microtiter plates containing approximately 10 μM 3H-labeled poly-(ADP-ribose) in 50 mM Phosphate buffer (pH 7.1), 5 mM B-mercaptoethanol. The reaction was incubated at 23° C. for 10 min. and was stopped with the addition of TCA to a final concentration of 10%.
Enzyme activity was measured by the disappearance of substrate, [poly-(ADP-ribose) polymer], which was quantified as the loss of glass fiber filter adsorbed radioactivity. The reaction was harvested onto Millipore GFC96 well filter plates using the Packard Cell Harvestor. The plates were washed three times with 70% ethanol, air dried, and the radioactivity was measured by scintillation counting.

T1 sequence (Q86W56 378-976): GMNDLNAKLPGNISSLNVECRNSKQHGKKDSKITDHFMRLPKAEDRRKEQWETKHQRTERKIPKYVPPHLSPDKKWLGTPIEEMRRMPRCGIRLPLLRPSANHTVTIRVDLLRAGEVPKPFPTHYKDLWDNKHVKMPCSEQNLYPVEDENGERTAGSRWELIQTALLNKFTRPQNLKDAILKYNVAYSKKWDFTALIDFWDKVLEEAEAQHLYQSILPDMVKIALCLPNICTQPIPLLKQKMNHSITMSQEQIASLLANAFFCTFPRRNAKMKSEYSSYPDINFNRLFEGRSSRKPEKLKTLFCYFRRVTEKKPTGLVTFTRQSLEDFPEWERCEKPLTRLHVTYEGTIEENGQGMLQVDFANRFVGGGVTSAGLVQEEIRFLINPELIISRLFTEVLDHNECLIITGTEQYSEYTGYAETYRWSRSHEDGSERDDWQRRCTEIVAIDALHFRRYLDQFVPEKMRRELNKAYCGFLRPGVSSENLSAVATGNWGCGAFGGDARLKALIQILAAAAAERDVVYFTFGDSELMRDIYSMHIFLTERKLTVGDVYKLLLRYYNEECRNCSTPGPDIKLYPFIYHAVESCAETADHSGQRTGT

In the case of `O=C(NCc1ccc(O)c(O)c1)c1ccc2c(c1)C(=O)c1cc(C(=O)NCc3ccc(O)c(O)c3)ccc1-2` [Example 58, 9-Oxo-9H-fluorene-2,7-bis-(3,4-dihydroxy-benzylamide)], the melting point lay in the range of 160 to 163 °C. Also, on human PARG, the IC50 was determined as 10 µM.

Turning to `O=C(CCN1CCN(c2ccc(F)cc2)CC1)c1ccc2c(c1)Cc1cc(C(=O)CCN3CCN(c4ccc(F)cc4)CC3)ccc1O2` [Example 59], the melting point fell in the range of 207 to 209 °C. The IC50 at human PARG came to 2.9 µM.

The compound `O=C(CCN1CCN(c2cccc(Cl)c2)CC1)c1ccc2c(c1)Cc1cc(C(=O)CCN3CCN(c4cccc(Cl)c4)CC3)ccc1O2` [Example 60] showed a melting point of 182 to 185 °C. Moreover, the IC50 at human PARG is 1.1 µM.
